# Results taken from patent US20240150290A1, “HETEROCYCLIC P2Y14 RECEPTOR ANTAGONISTS” (priority 2021, published 2024).
# Read-outs that look alike come from different tables or passages of the source. Marks after values point to notes of the source that are not given here.
# Key:
# [1] = mouse, cited from earlier work
# [2] = cited from earlier work
# [3] = HPLC-based lipophilicity (Log D7.4)
# hP2Y14R [4] = biological target: T1, hP2Y14R (Homo sapiens, UniProt Q15391); conditions: Table 2; data from Jung et al. and Mufti et al.; cited from earlier work
# T1 construct: expressed in transfected cells; host or cells: CHO cells
# T1 sequence (Q15391 1-338): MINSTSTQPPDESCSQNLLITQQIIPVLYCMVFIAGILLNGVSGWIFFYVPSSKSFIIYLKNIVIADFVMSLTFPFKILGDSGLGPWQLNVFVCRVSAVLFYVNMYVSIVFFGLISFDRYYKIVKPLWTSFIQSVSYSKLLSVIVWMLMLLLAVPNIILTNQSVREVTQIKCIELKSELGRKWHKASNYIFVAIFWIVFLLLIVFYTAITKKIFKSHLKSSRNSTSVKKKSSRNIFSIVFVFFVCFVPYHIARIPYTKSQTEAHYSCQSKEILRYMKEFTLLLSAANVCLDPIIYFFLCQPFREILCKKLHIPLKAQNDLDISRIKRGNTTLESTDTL
# [5] = mouse, cited from earlier work; remark: listed apart in the source
# mP2Y14R [6] = biological target: T2, mP2Y14R (Mus musculus, UniProt Q9ESG6); parameters: expressed in transfected cells; conditions: Table 2; data from Jung et al. and Mufti et al.; cited from earlier work
# T2 sequence (Q9ESG6 1-338): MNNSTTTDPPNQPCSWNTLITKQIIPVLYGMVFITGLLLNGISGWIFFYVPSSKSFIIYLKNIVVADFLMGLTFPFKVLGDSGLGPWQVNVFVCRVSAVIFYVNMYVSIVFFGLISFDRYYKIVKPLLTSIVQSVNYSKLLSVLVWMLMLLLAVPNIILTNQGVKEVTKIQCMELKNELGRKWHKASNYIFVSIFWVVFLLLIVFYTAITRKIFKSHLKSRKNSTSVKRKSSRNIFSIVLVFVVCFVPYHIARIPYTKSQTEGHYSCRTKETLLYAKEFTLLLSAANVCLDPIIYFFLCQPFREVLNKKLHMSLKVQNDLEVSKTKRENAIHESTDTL
# hP2Y14R [7] = biological target: T1, hP2Y14R; experiment: Inhibition of fluorescent antagonist binding in whole hP2Y14R-expressing CHO cells (flow cytometry)
# [8] = Aqueous solubility, pION method
# [9] = human, cited from earlier work
# [10] = human, cited from earlier work; remark: listed apart in the source
# [11] = Table 4; Yu et al.; cited from earlier work
# CYP3A4 [12] = biological target: T3, CYP3A4 (Homo sapiens, UniProt P08684); conditions: Table 4; Yu et al.; cited from earlier work
# T3 sequence (P08684 whole entry): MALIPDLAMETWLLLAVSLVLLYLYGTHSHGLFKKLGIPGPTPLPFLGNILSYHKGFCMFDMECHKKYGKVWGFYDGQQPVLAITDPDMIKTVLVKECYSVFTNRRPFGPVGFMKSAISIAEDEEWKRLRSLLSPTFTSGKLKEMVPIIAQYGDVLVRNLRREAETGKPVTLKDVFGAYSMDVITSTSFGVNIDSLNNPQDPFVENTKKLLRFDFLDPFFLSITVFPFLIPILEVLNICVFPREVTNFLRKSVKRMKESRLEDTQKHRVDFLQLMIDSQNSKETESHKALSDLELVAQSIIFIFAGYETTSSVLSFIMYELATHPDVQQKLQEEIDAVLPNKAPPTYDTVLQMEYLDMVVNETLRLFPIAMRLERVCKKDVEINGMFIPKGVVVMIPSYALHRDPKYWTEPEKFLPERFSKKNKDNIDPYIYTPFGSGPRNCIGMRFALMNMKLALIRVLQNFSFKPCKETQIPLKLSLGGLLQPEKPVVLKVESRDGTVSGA
# [13] = Table 4; Yu et al.; cited from earlier work; remark: listed apart in the source
# CYP1A2 [14] = biological target: T4, CYP1A2 (Homo sapiens, UniProt P05177); conditions: Table 4; Yu et al.; cited from earlier work
# T4 sequence (P05177 1-516): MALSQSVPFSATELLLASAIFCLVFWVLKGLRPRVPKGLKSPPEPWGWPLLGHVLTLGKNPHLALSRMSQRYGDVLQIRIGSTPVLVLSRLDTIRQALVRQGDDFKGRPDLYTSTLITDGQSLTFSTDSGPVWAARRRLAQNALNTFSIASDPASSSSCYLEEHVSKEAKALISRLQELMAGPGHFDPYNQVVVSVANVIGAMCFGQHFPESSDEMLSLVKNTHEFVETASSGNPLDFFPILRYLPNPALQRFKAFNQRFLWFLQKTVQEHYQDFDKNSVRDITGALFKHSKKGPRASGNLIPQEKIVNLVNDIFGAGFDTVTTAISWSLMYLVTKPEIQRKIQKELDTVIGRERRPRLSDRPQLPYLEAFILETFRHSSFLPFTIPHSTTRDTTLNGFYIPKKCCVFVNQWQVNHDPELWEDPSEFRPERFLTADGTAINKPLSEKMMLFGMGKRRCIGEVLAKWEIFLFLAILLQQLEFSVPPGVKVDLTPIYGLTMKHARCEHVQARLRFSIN
# [15] = rat; Table 4; Yu et al.; cited from earlier work
# [16] = rat; Table 4; Yu et al.; cited from earlier work; remark: listed apart in the source
# CYP2C19 [17] = biological target: T5, CYP2C19 (Homo sapiens, UniProt P33261); conditions: Table 4; Yu et al.; cited from earlier work
# T5 sequence (P33261 whole entry): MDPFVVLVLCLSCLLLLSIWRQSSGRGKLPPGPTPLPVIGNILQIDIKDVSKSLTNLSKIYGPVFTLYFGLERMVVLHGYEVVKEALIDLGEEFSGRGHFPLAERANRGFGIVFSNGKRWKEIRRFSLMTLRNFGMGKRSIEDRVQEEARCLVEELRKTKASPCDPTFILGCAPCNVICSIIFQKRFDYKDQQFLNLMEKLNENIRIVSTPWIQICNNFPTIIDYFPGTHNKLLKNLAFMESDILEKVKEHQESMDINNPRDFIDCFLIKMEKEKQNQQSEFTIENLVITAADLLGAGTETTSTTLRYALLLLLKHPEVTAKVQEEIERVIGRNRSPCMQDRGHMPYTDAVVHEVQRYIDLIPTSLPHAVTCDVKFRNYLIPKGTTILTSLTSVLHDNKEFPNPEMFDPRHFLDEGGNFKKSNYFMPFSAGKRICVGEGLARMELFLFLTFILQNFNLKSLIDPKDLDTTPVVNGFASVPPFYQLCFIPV
# [18] = i.v. administration in rat, 0.5 mg/kg; Yu et al.; cited from earlier work
# CYP2C9 [19] = biological target: T6, CYP2C9 (Homo sapiens, UniProt P11712); conditions: Table 4; Yu et al.; cited from earlier work
# T6 sequence (P11712 whole entry): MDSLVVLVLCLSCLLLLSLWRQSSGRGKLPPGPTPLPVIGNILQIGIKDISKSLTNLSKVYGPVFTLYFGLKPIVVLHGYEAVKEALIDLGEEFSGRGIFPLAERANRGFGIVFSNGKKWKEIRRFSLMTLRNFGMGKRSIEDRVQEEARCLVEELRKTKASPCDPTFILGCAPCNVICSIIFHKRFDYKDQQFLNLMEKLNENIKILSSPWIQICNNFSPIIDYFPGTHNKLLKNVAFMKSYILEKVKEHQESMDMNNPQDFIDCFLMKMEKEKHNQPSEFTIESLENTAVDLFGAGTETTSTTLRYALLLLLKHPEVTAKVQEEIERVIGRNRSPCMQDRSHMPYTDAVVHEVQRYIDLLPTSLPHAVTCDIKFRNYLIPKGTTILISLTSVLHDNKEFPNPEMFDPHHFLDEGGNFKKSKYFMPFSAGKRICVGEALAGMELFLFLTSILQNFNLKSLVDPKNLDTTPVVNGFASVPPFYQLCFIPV
# CYP2D6 [20] = biological target: T7, CYP2D6 (Homo sapiens, UniProt P10635); conditions: Table 4; Yu et al.; cited from earlier work
# T7 sequence (P10635 whole entry): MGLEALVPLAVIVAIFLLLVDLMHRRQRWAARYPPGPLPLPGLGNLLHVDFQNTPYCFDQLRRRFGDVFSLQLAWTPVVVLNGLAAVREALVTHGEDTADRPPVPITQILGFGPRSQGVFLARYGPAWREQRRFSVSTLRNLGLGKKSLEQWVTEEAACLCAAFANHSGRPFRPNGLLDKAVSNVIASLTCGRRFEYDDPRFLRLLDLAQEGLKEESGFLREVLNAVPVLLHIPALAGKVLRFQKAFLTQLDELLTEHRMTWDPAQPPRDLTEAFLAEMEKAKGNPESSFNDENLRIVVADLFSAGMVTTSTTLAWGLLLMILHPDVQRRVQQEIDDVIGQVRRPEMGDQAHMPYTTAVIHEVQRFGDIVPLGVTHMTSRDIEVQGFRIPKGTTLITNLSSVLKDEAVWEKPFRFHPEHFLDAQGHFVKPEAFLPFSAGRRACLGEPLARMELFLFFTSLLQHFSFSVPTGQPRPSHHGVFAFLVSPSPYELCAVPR
# [21] = Plasma protein binding, mouse; assay type: in vitro ADME
# [22] = Plasma protein binding, rat; assay type: in vitro ADME
# [23] = tested on: CCI-induced mechano-allodynia; experiment: Chronic constriction injury (CCI) mouse model of neuropathic pain; conditions: 10 μmol/kg, i.p.
# mP2Y14R [24] = biological target: T2, mP2Y14R; experiment: cell-based; conditions: read-out: mP2Y14R, IC50; Table 6; whole mP2Y14R-HEK cells, 200 nM of 3, mean ± SEM, n = 3-6
# From the text: Desirably, receptor affinity is maintained across species, facilitating performance in in vivo preclinical testing in small animals, with the mouse being the most commonly used species in initial evaluation.
# [25] = Microsomal stability, mouse; assay type: in vitro ADME; conditions: Table 7
# [26] = Microsomal stability, rat; assay type: in vitro ADME; conditions: Table 7
# [27] = Stability in simulated intestinal fluid; conditions: Table 7
# CYP2C19 [28] = biological target: T5, CYP2C19; experiment: CYP2C19 inhibition; assay type: in vitro ADME; conditions: Table 7
# hERG = hERG (Homo sapiens, UniProt Q12809); experiment: hERG inhibition, fluorescent method; assay type: binding; conditions: Table 7
# hERG, sequence (Q12809 whole entry): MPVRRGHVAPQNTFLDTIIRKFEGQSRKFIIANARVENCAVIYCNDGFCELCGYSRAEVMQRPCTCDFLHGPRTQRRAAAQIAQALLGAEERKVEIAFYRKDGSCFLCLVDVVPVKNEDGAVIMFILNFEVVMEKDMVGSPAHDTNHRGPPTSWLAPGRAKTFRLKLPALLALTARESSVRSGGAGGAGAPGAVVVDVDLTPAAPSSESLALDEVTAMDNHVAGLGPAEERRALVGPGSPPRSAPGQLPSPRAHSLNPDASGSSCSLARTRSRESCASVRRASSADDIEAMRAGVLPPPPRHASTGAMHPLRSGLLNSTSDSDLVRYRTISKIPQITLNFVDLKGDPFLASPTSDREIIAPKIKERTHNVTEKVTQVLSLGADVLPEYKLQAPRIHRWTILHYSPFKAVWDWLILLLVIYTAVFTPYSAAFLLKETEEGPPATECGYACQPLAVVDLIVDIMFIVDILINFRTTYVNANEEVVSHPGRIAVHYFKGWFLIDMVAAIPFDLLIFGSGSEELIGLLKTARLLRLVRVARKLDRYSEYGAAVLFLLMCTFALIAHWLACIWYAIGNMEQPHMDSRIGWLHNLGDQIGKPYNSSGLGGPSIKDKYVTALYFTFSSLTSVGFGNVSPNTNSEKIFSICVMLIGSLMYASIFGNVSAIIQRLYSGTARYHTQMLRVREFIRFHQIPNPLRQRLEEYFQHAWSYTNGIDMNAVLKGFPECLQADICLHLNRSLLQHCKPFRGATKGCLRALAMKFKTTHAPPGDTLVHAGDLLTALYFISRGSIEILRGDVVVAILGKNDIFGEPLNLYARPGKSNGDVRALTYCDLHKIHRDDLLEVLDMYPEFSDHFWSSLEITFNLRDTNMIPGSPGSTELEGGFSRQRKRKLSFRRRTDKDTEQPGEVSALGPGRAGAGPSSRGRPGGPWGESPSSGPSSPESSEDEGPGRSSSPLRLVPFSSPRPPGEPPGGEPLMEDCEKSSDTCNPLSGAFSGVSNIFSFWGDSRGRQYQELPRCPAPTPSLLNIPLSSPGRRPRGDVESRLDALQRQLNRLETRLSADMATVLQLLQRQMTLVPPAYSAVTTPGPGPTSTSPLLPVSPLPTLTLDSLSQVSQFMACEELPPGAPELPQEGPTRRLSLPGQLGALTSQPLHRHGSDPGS
# CYP3A4 [29] = biological target: T3, CYP3A4; experiment: CYP3A4 inhibition; assay type: in vitro ADME; conditions: Table 7
# [30] = Microsomal stability, human
# hERG ion channel = hERG ion channel (Homo sapiens, UniProt Q12809); experiment: hERG ion channel block, patch clamp assay
# hERG ion channel, sequence (Q12809 whole entry): as above
# Plasma stability, rat = conditions: Table 7
# Plasma stability, mouse = conditions: Table 7
# [31] = In vivo half-life by administration mode (Table 7)
# [32] = Plasma protein binding, human; assay type: in vitro ADME
# [33] = Stability in simulated gastric fluid; conditions: Table 7
# CYP1A2 [34] = biological target: T4, CYP1A2; experiment: CYP1A2 inhibition; assay type: in vitro ADME; conditions: Table 7
# CYP2C9 [35] = biological target: T6, CYP2C9; experiment: CYP2C9 inhibition
# CYP2D6 [36] = biological target: T7, CYP2D6; experiment: CYP2D6 inhibition; assay type: in vitro ADME; conditions: Table 7
# [37] = first value of the cell (mode not given; by the column of 4: i.p.)
# [38] = second value of the cell (mode not given; by the column of 4: i.v., 0.5 mg/kg)
# [39] = Table 6, fluorescent hP2Y14R antagonist (3), read-out: hP2Y14R, IC50
Compound,Solubility (ug/mL) pH 4 [8],Solubility (ug/mL) pH 7.4 [8],"Mouse, % bound (±SD) [21]","Rat, % bound (±SD) [22]",IC50 (mP2Y14R [24]),"Microsomal stability (t1/2, min) [25]","Microsomal stability (t1/2, min) [26]",Simulated intestinal fluid (% remaining at 120 min) [27],IC50 (CYP2C19 [28]),IC50 (hERG),IC50 (CYP3A4 [29]),"Plasma stability (% remaining at 120 min) (Plasma stability, rat)","Plasma stability (% remaining at 120 min) (Plasma stability, mouse)","t1/2 (h), administration mode [31, 37]","t1/2 (h), administration mode [31, 38]",IC50 (hP2Y14R [7]; [39]),"Human, % bound (±SD) [32]",IC50 (CYP1A2 [34]),IC50 (CYP2C9 [35]),IC50 (CYP2D6 [36]),further results
O=C(O)c1cc(-c2ccc(C34CCN(CC3)CC4)cc2)c2ccc(-c3ccc(C(F)(F)F)cc3)cc2c1 [Compound 4],1.50 ± 0.04 ug/mL,0.55 ± 0.02 ug/mL,–,–,–,–,–,–,–,–,–,–,–,–,–,–,–,–,–,–,"Microsomal stability (t1/2, min) ([1]; Table 7, Jung et al. 2020): 67.2 min; aqueous solubility (pH 4.0, μg/mL) ([2]; pH 4.0, Table 7, Jung et al. 2020): 14.3 ± 0.5 μg/mL; aqueous solubility (pH 7.4, μg/mL) ([2]; Table 7, Jung et al. 2020): 0.44 ± 0.06 μg/mL; Log D7.4 ([3]; calculated from retention factor difference between ligands and 1 (k = 3.41)): 4.18 ± 0.85^f; IC50 (hP2Y14R [4]): 0.169 ± 0.042 µM; Plasma stability (% remaining at 120 min) ([5]; Table 7, Jung et al. 2020): 100 (m) %; IC50 (mP2Y14R [6]): 0.384 ± 0.088 µM; IC50 (hP2Y14R [7]; Example 5 table, whole cell fluorescent binding assay, read-out: IC50): 0.02 ± 0.0044 µM; IC50 (hP2Y14R [7]; Table 2, whole hP2Y14R-CHO cells, 20 nM fluorescent antagonist 3, mean+SEM, n = 3-6, read-out: IC50): 0.02 ± 0.0044 µM; Plasma stability (% remaining at 120 min) ([9]; Table 7, Jung et al. 2020): 100%; Microsomal stability (t1/2, min) ([10]; Table 7, Jung et al. 2020): 8 >240 (h) min"
NC(=O)c1ccc(-c2cc(C(=O)O)cc(-n3cc(-c4ccc(C(F)(F)F)cc4)nn3)c2)cc1 [Compound 5],–,–,–,–,–,–,–,–,–,–,–,–,–,–,–,–,–,–,–,–,"Simulated intestinal fluid (t1/2, min) [11]: >240 min; IC50 (CYP3A4 [12]): > 30 µM; Simulated gastric fluid (t1/2, min) [13]: >240 min; Microsomal stability (t1/2, min) ([1]; Table 4, Yu et al.): 145 min; aqueous solubility (pH 7.4, μg/mL) ([2]; mean ± SD, Table 4, Yu et al.): 138 ± 4 μg/mL; IC50 (CYP1A2 [14]): > 30 µM; Plasma stability (t1/2, min) [15]: >240 (h); >240 (r); min; Microsomal stability (t1/2, min) [16]: 108 min; IC50 (CYP2C19 [17]): > 30 µM; Plasma stability (t1/2, min) ([5]; Table 4, Yu et al.): >240 (m) min; t1/2 [18]: 0.20 h; Plasma stability (t1/2, min) ([9]; Table 4, Yu et al.): >240 (h); >240 (r); min; Microsomal stability (t1/2, min) ([10]; Table 4, Yu et al.): 145 (h) min; IC50 (CYP2C9 [19]): > 30 µM; IC50 (CYP2D6 [20]): > 30 µM"
"O=C(O)c1cc(-c2ccc([C@H]3C[C@H]4C[C@@H]3CN4)cc2)c2ccc(-c3ccc(C(F)(F)F)cc3)cc2c1 [Compound 114, 4-(4-((1S,4S,5S)-2-Azabicyclo[2.2.1]heptan-5-yl)phenyl)-7-(4-(trifluoromethyl)phenyl)-2-naphthoic acid]",1.22 ± 0.05 ug/mL,0.77 ± 0.21 ug/mL,99.76 ± 0.03%,99.79 ± 0.02%,0.0339 ± 0.0046 µM,243 min,91.0 min,99.1%,> 30 µM,> 30 µM,> 30 µM,82.8%,100%,8.94 h,7.24 h,0.00311 ± 0.00062 µM,87.98 ± 10.29%,> 30 µM,> 30 µM,> 30 µM,"side effects [23]: No obvious side effects were observed; reversal of mechano-allodynia (figure legend) ([23]; day 7 post-injury): reversed the established mechano-allodynia; chromatographic logD ([3]; pH 7.4): 1.92 ± 0.09; Microsomal stability (t1/2, min) ([30]; Table 7): 280 (h) min; IC50 (hERG ion channel): > 30 µM; Simulated gastric fluid (% remaining at 120 min) ([33]; aqueous acid stability determined by NMR): 100^e %"
"O=C(O)c1cc(-c2ccc([C@@H]3C[C@@H]4C[C@H]3NC4=O)cc2)c2ccc(-c3ccc(C(F)(F)F)cc3)cc2c1 [Compound 121, 4-(4-((1R,4R,6S)-3-Oxo-2-azabicyclo[2.2.1]heptan-6-yl)phenyl)-7-(4-(trifluoromethyl)phenyl)-2-naphthoic acid]",–,–,99.74 ± 0.04%,96.18 ± 0.32%,0.0429 ± 0.007 µM,> 1000 min,89.4 min,100%,> 30 µM,> 30 µM,> 30 µM,74.7%,74.1%,4.59 h,2.11 h,0.0373 ± 0.006 µM,98.89 ± 0.50%,> 30 µM,> 30 µM,> 30 µM,half-life ([30]; liver microsomes): 14.2 h; Simulated gastric fluid (% remaining at 120 min) [33]: 59.3%
